Reference: publication PMC10028264, “Synergistic antifungal interaction of N-(butylcarbamothioyl) benzamide and amphotericin B against Cryptococcus neoformans” (Frontiers in Microbiology, 2023)
Values after ≈ are worked out from the molar mass of the structure shown.

Experiments:
[1] = test system: C neoformans mature biofilms; design: method as in Martinez and Casadevall, 2006; settings: strains ATCC 24067, ATCC B3501 and H99; ref Martinez and Casadevall, 2006; cited from earlier work
Cryptococcus neoformans = experiment: Checkerboard broth microdilution assay on planktonic cells; assay type: cell-based; settings: both strains (ATCC 34872 and 1172)
Experimental: The antifungal effect of BTU-01 combined with AmB was evaluated using the checkerboard broth microdilution assay, according to [Scott et al. (1995)]. Twofold serial dilutions of BTU-01 (0.03–1000.0 μg/mL) and AmB (0.000001–16.0 μg/mL) were respectively added across the rows and columns of the U-bottom 96-well microtiter plates. Thereafter, 100 μL (0.5–2.5 × 10^3 CFU/mL) of fungal inoculum was added and the plates were incubated at 37°C for 72 h. The Fractional Inhibitory Concentration (FIC) of each compound was determined by the ratio of the MIC obtained when the compounds were tested in combination and the MIC of the compounds tested individually. The FIC Index (FICI) was calculated from the sum of the FICBTU–01 and FICAmB, and the value was interpreted as: synergism FICI ≤ 0.5, no interaction 0.5 < FICI < 4.0, and antagonism FICI > 4.0 ([Odds, 2003]).

[2] = Cytotoxicity, MTT reduction assay; assay type: cell-based; settings: 24 h, MTT
Experimental: (§1) The effect of BTU-01 was analyzed on mammalian epithelial cell lines [HEp-2 CCL-23™ (ATCC), LLC-MK2, VERO CCL81 and HeLa (Merck, Brazil)], and the cytotoxicity was evaluated as described by [Longhi et al. (2016)] with modifications. Briefly, cells were cultured in Dulbecco’s Modified Eagle’s medium (DMEM) supplemented with 10% fetal bovine serum (Invitrogen, Brazil), 2 mM L-glutamine, 100 IU/mL penicillin, 100 μg/mL streptomycin, 1% tylosin in flat-bottomed 96-well microtiter plates, in 5% CO2 at 37°C for 48 h. Then, the medium was carefully removed and fresh medium containing twofold serially diluted BTU-01 (0.095–500.0 μg/mL) was added. The cells were incubated for further 24 h under the same conditions. Cell viability was analyzed by the MTT reduction assay according to the manufacturer’s recommendation. The concentration of the compound needed to inhibit the viable cells up to 50 and 90% by regression analysis corresponds to the 50% (CC50) and 90% (CC90) cytotoxic concentrations, respectively.
(§2) The concentration of BTU-01 capable of causing 90% of hemolysis/cytotoxicity was used to calculate the selectivity index (SI) using the following equation: SI = CC90/MIC.

HeLa = experiment: Cytotoxicity, MTT reduction assay; assay type: cell-based; settings: SI = CC90/MIC, MIC 62.5 μg/mL
Experimental: as §1, §2

LLC-MK2 = experiment: Cytotoxicity, MTT reduction assay; assay type: cell-based; settings: SI = CC90/MIC, MIC 62.5 μg/mL
Experimental: as §1, §2

VERO-CCL81 = experiment: Cytotoxicity, MTT reduction assay; assay type: cell-based; settings: SI = CC90/MIC, MIC 62.5 μg/mL
Experimental: as §1, §2

HEp-2 CCL-23 = experiment: Cytotoxicity, MTT reduction assay; assay type: cell-based, human; settings: SI = CC90/MIC, MIC 62.5 μg/mL
Experimental: as §1, §2

[3] = Cytotoxicity, MTT reduction assay, ranges over all cell lines; assay type: cell-based; settings: different cell lines
Experimental: as §1, §2

[4] = African green monkey, VERO CCL81 cells

| SMILES | concentration inhibiting metabolic activity of mature biofilms [1] | decrease in MIC value in combination (Cryptococcus neoformans) [fold] | CC50 at 24 h [2, 4] [mg/L] | CC90 at 24 h [2, 4] [mg/L] | CC50 at 24 h ([2]; human, HeLa cells) [mg/L] | CC90 at 24 h ([2]; human, HeLa cells) [mg/L] | CC50 at 24 h ([2]; rhesus monkey, LLC-MK2 cells) [mg/L] | CC90 at 24 h ([2]; rhesus monkey, LLC-MK2 cells) [mg/L] | SI (HeLa) | SI (LLC-MK2) | SI (VERO-CCL81) | SI (HEp-2 CCL-23) | CC50 at 24 h ([3]; read-out: CC50, range over cell lines) [mg/L] | CC90 at 24 h ([3]; read-out: CC90, range over cell lines) [mg/L] |
| --- | --- | --- | --- | --- | --- | --- | --- | --- | --- | --- | --- | --- | --- | --- |
| C[C@@H]1[C@H](O)[C@@H](C)/C=C/C=C/C=C/C=C/C=C/C=C/C=C/[C@H](O[C@@H]2O[C@H](C)[C@@H](O)[C@H](N)[C@@H]2O)C[C@@H]2O[C@](O)(C[C@@H](O)C[C@@H](O)[C@H](O)CC[C@@H](O)C[C@@H](O)CC(=O)O[C@H]1C)C[C@H](O)[C@H]2C(=O)O [Amphotericin B, amphotericin B] | higher than 2.0 μg/mL |  |  |  |  |  |  |  |  |  |  |  |  |  |
| CCCCNC(=S)NC(=O)c1ccccc1 [BTU-01, N-(butylcarbamothioyl) benzamide] |  | 16 | 121 (≈ 513 µM) | 244 (≈ 1030 µM) | 83.8 (≈ 355 µM) | 154 (≈ 650 µM) | 71.7 (≈ 303 µM) | 143 (≈ 603 µM) | 2.5 | 2.3 | 3.9 | 3.9 | 61 to 121 (≈ 258 to 513 µM) | 143 to 244 (≈ 603 to 1030 µM) |
